Assay results taken from patent publication US20190275010A1, “COMBINATION THERAPY COMPRISING A THIAZOLE AND A SECOSTEROID TO TREAT SKIN CONDITIONS” (Avexxin AS, priority 2016, published 2019).
Entries after “also recorded” stand apart in the source; their conditions may differ.

Test system: HaCaT cells
Experiment: Resazurin assay, HaCaT keratinocyte cell viability
Type: cell-based, human
Details: for effect on cell viability at 10 μM: single agent 10 μM, 24 hours (FIG. 1); for concentration at which the compound was found to reduce cell viability: single agent dose response, 24 hours treatment, resazurin (FIG. 1)
Description: The spontaneously immortalized, nontumorigenic skin keratinocyte cell line HaCaT was maintained in DMEM supplemented with 5% (v/v) FBS, 0.3 mg/ml glutamine and 0.1 mg/ml gentamicin at 37° C. with 5% CO2 in a humidified atmosphere. Subculture using trypsin-EDTA was performed every 3-4 days with split ratio of 1:3-1:4 to ensure actively proliferating cells.
Cells were seeded in 96 well plates in fully supplemented medium at a density of 3000 cells per well. Following 72 hour of cultivation, the cells were starved of serum in 0.25% FBS/DMEM overnight to halt proliferation, synchronize the cells and to increase cell sensitivity to treatment. Next day, the cells were treated with cPLA2α inhibitor Compound B, Compound A, vitamin D analogue Calcipotriol and corticosteroid hormone receptor agonist Betamethasone dipropionate for 24 hours. Resazurin was added next day according to the manufacturer's instruction (RnD Systems, UK) and left to incubate for […] in incubator at 37° C. with 5% CO2 in a humidified atmosphere before fluorescence was read at 544 nm excitation and 590 nm emission wavelength. The cells were observed under the microscope to evaluate possible morphology changes and signs of stress before addition of resazurin. The experiments were performed in series of 8 wells per treatment and repeated 3 times.

SMILES	effect on cell viability at 10 μM	concentration at which the compound was found to reduce cell viability
C=C1/C(=C\C=C2/CCC[C@]3(C)[C@@H]([C@H](C)/C=C/[C@@H](O)C4CC4)CC[C@@H]23)C[C@@H](O)C[C@@H]1O [Calcipotriol]	no signs of impairment in cell viability; also recorded: no toxicity	15 µM
CCCCCCCOc1ccc(OCC(=O)c2nc(C(=O)OC)cs2)cc1 [Compound A1]	no toxicity	20 µM
